The values that follow come from US8853424B2 (Japan Science and Technology Agency, priority 2008, dated 2014).

The term IC50 denotes the point on the concentration scale where inhibition reaches its midpoint.

One assay concerns transglutaminase (TGase). Kind of assay: Measurement of TG (TGase inhibitory activity, monodansyl cadaverine / N,N-dimethylcasein fluorescence, FDSS 3000). It is filed as biochemical. An outline of the steps:
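Compound (1 μL of 10 mM stock) added to 0.1 mL reaction: 100 mM HEPES-NaOH pH 7.5, 1 mM CaCl2, 20 μM monodansyl cadaverine, 0.05 mg/mL N,N-dimethylcasein, 5 μg/mL TGase. Rate of fluorescence change at 340 nm measured; DMSO control set to 100; TG50 is the concentration halving activity.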

Assay [1] relates to Truncated N-terminal huntington 150 Q-EGFP-Neuron 2a cells. The experiment in a line: Measurement of x-Fold (polyglutamine aggregation inhibitory activity). It is filed as cell-based. As for the experimental part: In the present invention, the polyglutamine aggregation inhibitory activity (x-Fold) can be measured, for example, by the method described in the Example.
The number of the aggregated cells, and the total number of cells were counted by Array Scan V T1 (manufactured by Cellomics, Pittuburg, USA), and the ratio of the aggregated cells to the total number of cells was determined (x-Fold). […]

For assay [2], the system named is SOC (store operated calcium channel). Kind of assay: Measurement of SOC IC50 (thapsigargin store depletion, calcium re-addition, CHO cells). It counts as cell-based. The note with it: read-out: SOC IC50. As for the experimental part:
The SOC (store operated calcium channel)-suppressive action can be measured by the method described in the Example and using, for example, FDSS 3000.
CHO cell culture medium was replaced with a BSS solution which is an extracellular fluidfree of calcium, the compound of the present invention was added 1 min later, and 1 μM thapsigargin was allowed to act thereon 2 min later to deplete intracellular calcium store. […]

Where [3] appears, read: TGase activity with compound (10 mM, 1 μL in 0.1 ml enzyme reaction solution), DMSO control taken as 100.
[4] abbreviates: ratio of aggregated cells to total number of cells, compound 20 μM, 20 hr, almost 1 without compound, smaller = stronger inhibition.
The mark [5] stands for this setting: Cricetulus griseus, CHO, CHO cells, 1 μM thapsigargin, 2 mM calcium chloride.
[6] abbreviates: TGase inhibitory activity value, Table 1.
Setting [7] is: polyglutamine aggregation inhibitory activity, Table 1.
Where [8] appears, read: Cricetulus griseus, CHO, Table 1.
The mark [9] stands for this setting: TGase inhibitory activity measurement, unit not given.
The mark [10] stands for this setting: polyglutamine aggregation, Truncated N-terminal huntington 150 Q-EGFP-Neuron 2a cells.
The mark [11] stands for this setting: CHO cells, 1 μM thapsigargin, 2 mM calcium chloride.

Like-named read-outs stand apart in the source and are kept apart here.

On to `Cc1ccc(Cl)cc1B(OCCN)c1cc(Cl)ccc1C` [Example 244, di(5-chloro-2-methylphenyl) 2-aminoethylborinate], for which the “TGase activity remaining (% of DMSO control = 100)” value in the assay with transglutaminase (TGase) (setting [3]) amounted to 74. Besides, the x-Fold in assay [1] (setting [4]) is listed as 0.76. In addition, the IC50 in assay [2] (setting [5]) stood at 1000 nM.
With `O=C1O[B-](c2ccccc2)(c2ccccc2)[NH2+]C1CO` (stereo not drawn) [Example 255, diphenyl(serinate-O,N)borane], the “TGase activity remaining (% of DMSO control = 100)” value in the assay on transglutaminase (TGase) (setting [3]) and with transglutaminase (TGase) (setting [6]) was 113 throughout. Also, the x-Fold in assay [1] (setting [7]) and in assay [1] (setting [4]) was 0.94 each time. Besides, the IC50 in assay [2] (setting [5]) and in assay [2] (setting [8]) was 500 nM throughout.
Take `CNCCOB(c1ccccc1)c1cccc(COCc2cccc(B(OCCNC)c3ccccc3)c2)c1` [Example 469, bis(3,3′-(phenyl-N-methylaminoethoxyboryl)benzyl)ether]: the “TGase activity remaining (% of DMSO control = 100)” value with transglutaminase (TGase) (setting [3]) and in the assay on transglutaminase (TGase) (setting [9]) was 15 in each case. Further, the x-Fold in assay [1] (setting [10]) and in assay [1] (setting [4]) was 0.94 in each case. In addition, in assay [2] (setting [11]), the concentration for half-maximal inhibition (IC50) was found to be 250 nM.
As to `CN(C)CCSB(c1ccccc1)c1ccccc1` [Example 294, diphenyl dimethylaminoethylthioborane], the “TGase activity remaining (% of DMSO control = 100)” value with transglutaminase (TGase) (setting [3]) and in the assay with transglutaminase (TGase) (setting [6]) was 114 in each case. Also, the x-Fold in assay [1] (setting [7]) and in assay [1] (setting [4]) was 0.96 throughout. Besides, the 50% inhibitory concentration (IC50) in assay [2] (setting [5]) and in assay [2] (setting [8]) was 2000 nM each time.
With `NCCOB(c1ccccc1)c1ccc(COCc2cccc(B(OCCN)c3ccccc3)c2)cc1` [Example 332, (3-(phenylaminoethoxyboryl)benzyl)(4-(phenylaminoethoxyboryl)benzyl)ether], the “TGase activity remaining (% of DMSO control = 100)” value with transglutaminase (TGase) (setting [3]) and in the assay with transglutaminase (TGase) (setting [6]) was 21 each time. The x-Fold in assay [1] (setting [7]) and in assay [1] (setting [4]) was 0.98 each time. Also, the IC50 in assay [2] (setting [5]) and in assay [2] (setting [8]) was 200 nM each time.
For `c1ccc(B(OCc2ccccn2)c2ccc(Oc3ccc(B(OCc4ccccn4)c4ccccc4)cc3)cc2)cc1` [Example 432, bis(4,4′-(phenyl-2-pyridylmethoxyboryl)phenyl)ether], the “TGase activity remaining (% of DMSO control = 100)” value in the assay with transglutaminase (TGase) (setting [3]) and in the assay on transglutaminase (TGase) (setting [9]) was 60 in each case. Moreover, the x-Fold in assay [1] (setting [10]) and in assay [1] (setting [4]) was 0.71 throughout. Besides, the 50% inhibitory concentration (IC50) in assay [2] (setting [11]) was 300 nM.
Turning to `NCCSB(c1ccc(C(F)(F)F)cc1)c1ccc(C(F)(F)F)cc1` [Example 285, di(4-trifluoromethylphenyl) 2-aminoethylthioborane], the “TGase activity remaining (% of DMSO control = 100)” value in the assay with transglutaminase (TGase) (setting [3]) and in the assay with transglutaminase (TGase) (setting [6]) was 51 each time. Moreover, the x-Fold in assay [1] (setting [7]) and in assay [1] (setting [4]) was 0.99 in each case. Also, the concentration for half-maximal inhibition (IC50) in assay [2] (setting [5]) and in assay [2] (setting [8]) was 2000 nM each time.
On to `c1ccc(NCCOB(c2ccccc2)c2ccc(COCc3ccc(B(OCCNc4ccccc4)c4ccccc4)cc3)cc2)cc1` [Example 455, bis(4,4′-(phenyl-phenylaminoethoxyboryl)benzyl)ether], for which the “TGase activity remaining (% of DMSO control = 100)” value with transglutaminase (TGase) (setting [3]) and in the assay with transglutaminase (TGase) (setting [9]) was 23 throughout. Moreover, the x-Fold in assay [1] (setting [10]) and in assay [1] (setting [4]) was 1.04 each time. In assay [2] (setting [11]), the IC50 turned out to be 500 nM.
For `Cc1ccc(B(OCCN(C)C)c2ccc(COCc3ccc(B(OCCN(C)C)c4ccc(C)c(Cl)c4)cc3)cc2)cc1Cl` [Example 422, bis(4,4′-(3-chloro-4-methylphenyl-N,N-dimethylaminoethoxyboryl)benzyl)ether], the “TGase activity remaining (% of DMSO control = 100)” value in the assay with transglutaminase (TGase) (setting [3]) and with transglutaminase (TGase) (setting [9]) was 13 in each case. Moreover, the results for the x-Fold in assay [1] (setting [7]), in assay [1] (setting [10]) and in assay [1] (setting [4]) were 0.91, 0.95 and 0.95, respectively. The half-inhibitory concentration (IC50) in assay [2] (setting [11]) was found to be 1200 nM; in assay [2] (Table 1), 700 nM.
For `Cc1ccc(B(SCCN(C)C)c2ccc(C)c(Cl)c2)cc1Cl` [Example 295, di(3-chloro-4-methylphenyl)dimethylaminoethylthioborane], the “TGase activity remaining (% of DMSO control = 100)” value with transglutaminase (TGase) (setting [3]) and in the assay on transglutaminase (TGase) (setting [6]) was 107 each time. The x-Fold in assay [1] (setting [7]) and in assay [1] (setting [4]) was 0.92 throughout. Further, the half-inhibitory concentration (IC50) in assay [2] (setting [5]) and in assay [2] (setting [8]) was 800 nM each time.
With `CCCCNCCOB(c1ccc(C)c(Cl)c1)c1ccc(C)c(Cl)c1` [Example 210, di(3-chloro-4-methylphenyl)butylaminoethyl borinate], the “TGase activity remaining (% of DMSO control = 100)” value in the assay with transglutaminase (TGase) (setting [3]) and with transglutaminase (TGase) (setting [6]) was 27 each time. Moreover, the x-Fold in assay [1] (setting [7]) and in assay [1] (setting [4]) was 0.98 in each case. Further, the half-maximal inhibitory concentration (IC50) in assay [2] (setting [5]) and in assay [2] (setting [8]) was 2000 nM in each case.
As to `CNCCOB(c1ccc(COCc2ccc(B(OCCNC)c3ccc(OC)cc3)cc2)cc1)c1ccc(OC)cc1` [Example 413, bis(4,4′-(p-methoxyphenyl-N-methylaminoethoxyboryl)benzyl)ether], the “TGase activity remaining (% of DMSO control = 100)” value in the assay with transglutaminase (TGase) (setting [3]) and with transglutaminase (TGase) (setting [9]) was 28 throughout. The x-Fold in assay [1] (setting [10]) and in assay [1] (setting [4]) was 0.81 each time. Moreover, in assay [2] (setting [11]), the IC50 was determined as 800 nM.
Regarding “bis(3-chloro-4-methylphenyl 2-pyridylmethoxyborylphenyl)ether [Example 117]”, the “TGase activity remaining (% of DMSO control = 100)” value with transglutaminase (TGase) (setting [3]) is listed as 108. For the same compound, in assay [1] (setting [4]), the x-Fold amounted to 0.06. In addition, in assay [2] (setting [11]), the IC50 was determined as 1500 nM.
Take `NCCOB(c1ccccc1)c1cccc(COCc2ccccc2B(OCCN)c2ccccc2)c1` [Example 334]: the “TGase activity remaining (% of DMSO control = 100)” value in the assay with transglutaminase (TGase) (setting [3]) and with transglutaminase (TGase) (setting [6]) was 21 each time. For the same compound, the x-Fold in assay [1] (setting [7]) and in assay [1] (setting [4]) was 1.02 throughout. Further, the IC50 in assay [2] (setting [5]) and in assay [2] (setting [8]) was 300 nM each time.
In the case of `CNCCOB(c1ccccc1)c1ccc(Oc2ccc(B(OCCNC)c3ccc(CO)cc3)cc2)cc1` [Example 391, (4-(phenyl-N-methylaminoethoxyboryl)phenyl)(4′-(hydroxymethylphenyl-N-methylaminoethoxyboryl)phenyl)ether], the “TGase activity remaining (% of DMSO control = 100)” value with transglutaminase (TGase) (setting [3]) and in the assay with transglutaminase (TGase) (setting [6]) was 15 in each case. The x-Fold in assay [1] (setting [7]) and in assay [1] (setting [4]) was 0.32 in each case. The IC50 in assay [2] (setting [5]) and in assay [2] (setting [8]) was 500 nM in each case.
For `Cc1ccc(B(OCCNCc2ccccc2)c2ccc(C)c(Cl)c2)cc1Cl` [Example 211, di(3-chloro-4-methylphenyl)benzylaminoethyl borinate], the “TGase activity remaining (% of DMSO control = 100)” value with transglutaminase (TGase) (setting [3]) and with transglutaminase (TGase) (setting [6]) was 86 each time. The x-Fold in assay [1] (setting [7]) and in assay [1] (setting [4]) was 0.99 in each case. Further, the IC50 in assay [2] (setting [5]) and in assay [2] (setting [8]) was 1000 nM each time.
As to `NCCOB(c1ccccc1)c1cccc(COCc2cccc(Oc3ccccc3)c2)c1` [Example 278, (3-phenoxybenzyl)-(3′-(phenyl-2-aminoethoxyboryl)benzyl)ether], the “TGase activity remaining (% of DMSO control = 100)” value in the assay on transglutaminase (TGase) (setting [3]) and with transglutaminase (TGase) (setting [6]) was 2 throughout. In addition, the x-Fold in assay [1] (setting [7]) and in assay [1] (setting [4]) was 1.08 throughout. In addition, the IC50 in assay [2] (setting [5]) and in assay [2] (setting [8]) was 300 nM throughout.
Take `CCCCNCCOB(c1ccccc1)c1ccc(COCc2ccc(B(OCCNCCCC)c3ccccc3)cc2)cc1` [Example 454, bis(4,4′-(phenyl-butylaminoethoxyboryl)benzyl)ether]: the “TGase activity remaining (% of DMSO control = 100)” value in the assay with transglutaminase (TGase) (setting [3]) and with transglutaminase (TGase) (setting [9]) was 15 throughout. The x-Fold in assay [1] (setting [10]) and in assay [1] (setting [4]) was 0.97 in each case. In addition, in assay [2] (setting [11]), the IC50 amounted to 500 nM.
For `NC(COB(c1ccccc1)c1cccc(COCc2cccc(B(OCC(N)c3ccccc3)c3ccccc3)c2)c1)c1ccccc1` (stereo not drawn) [Example 462, bis(3,3′-(phenyl-2-phenyl-2-aminoethoxyboryl)benzyl)ether], the “TGase activity remaining (% of DMSO control = 100)” value in the assay on transglutaminase (TGase) (setting [3]) and with transglutaminase (TGase) (setting [9]) was 31 in each case. Also, the x-Fold in assay [1] (setting [10]) and in assay [1] (setting [4]) was 0.92 each time. Also, the IC50 in assay [2] (setting [11]) came to 300 nM.
Regarding `NCCCC(N)C(=O)OB(c1ccccc1)c1ccc(Oc2ccc(B(OC(=O)C(N)CCCN)c3ccccc3)cc2)cc1` (stereo not drawn) [Example 435, bis(4,4′-(phenyl-ornithineboryl)phenyl)ether], the “TGase activity remaining (% of DMSO control = 100)” value in the assay on transglutaminase (TGase) (setting [3]) and in the assay with transglutaminase (TGase) (setting [9]) was 26 in each case. The x-Fold in assay [1] (setting [10]) and in assay [1] (setting [4]) was 0.84 each time. Besides, in assay [2] (setting [11]), the IC50 came out at 2000 nM.
